What all share (type): biochemical
The target in assay [1] is T1, human JAK1 (a.a. 837-1142) (Homo sapiens, UniProt P23458).
T1 construct: human JAK1 (a.a. 837-1142); His tag (N); made in house; host or cells: insect cells (baculovirus)
Nature of the assay: In vitro JAK kinase assay (HTRF, phosphorylation of a biotinylated peptide), JAK1. As to conditions: read-out: JAK1 IC50. In a few lines:
(§1)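 Kinase reactions ran at room temperature for 1 h with ATP matched per isoform (JAK1 90 μM, JAK2 30 μM, JAK3 3 μM). After an EDTA stop, the phosphorylated biotin-peptide was read by HTRF using Eu-Py20 and SA-APC after 40 min binding.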
(In general: In TR-FRET formats the signal depends on donor and acceptor labels being close together.)

Assay [2] concerns the target T2, human JAK2 (a.a. 828-1132) (Homo sapiens, UniProt O60674).
T2 construct: JAK2 (a.a. 828-1132); His tag (N); made in house; host or cells: insect cells (baculovirus)
Nature of the assay: In vitro JAK kinase assay (HTRF, phosphorylation of a biotinylated peptide), JAK2. In a few lines: as §1

Assay [3] deals with T3, human JAK3 (a.a. 781-1124) (Homo sapiens, UniProt P52333).
T3 construct: JAK3 (a.a. 781-1124); His tag (N); made in house; host or cells: insect cells (baculovirus)
Nature of the assay: In vitro JAK kinase assay (HTRF, phosphorylation of a biotinylated peptide), JAK3. In a few lines: as §1

Another assay deals with TYK2 (Homo sapiens, UniProt P29597). Nature of the assay: TYK2 kinase inhibition (Table A1).
For assay [4], the target named is T4, Recombinant Human Anaplastic Lymphoma Kinase (Homo sapiens, UniProt Q9UM73).
T4 construct: purchased Invitrogen, Carlsbad, Calif
Nature of the assay: ALK HTRF kinase assay. In a few lines: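 TR-FRET read-out (Eu anti-pTyr antibody + streptavidin-APC) of biotin-peptide phosphorylation by recombinant human enzyme; IC50 by sigmoidal fit with top/bottom baselines and Hill slope.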

The mark [5] stands for this setting: compound at a concentration of 500 nM or 1 mM (not specified), cells shown as percentage.
Setting [6] is: method AA1 (90 μM ATP) or AA2 (1000 μM ATP), not stated per value.
Setting [7] is: method AA1 (30 μM ATP) or AA2 (1000 μM ATP), not stated per value.
The mark [8] stands for this setting: method AA1 (3 μM ATP) or AA2 (1000 μM ATP), not stated per value.
Where [9] appears, read: compound at 500 nM or 1 mM, 90 μM ATP.

SMILES strings stand for the structures. Structures can show the parent of a compound that is named as a salt. Where two headings read alike, the source gives them in different places.

This is an account of results in patent US8871753B2, “Macrocyclic compounds and their use as kinase inhibitors” (Incyte Corporation, priority 2008, dated 2014).

The term IC50 denotes the concentration needed to halve the response being measured.

T1 sequence (P23458 849-1154): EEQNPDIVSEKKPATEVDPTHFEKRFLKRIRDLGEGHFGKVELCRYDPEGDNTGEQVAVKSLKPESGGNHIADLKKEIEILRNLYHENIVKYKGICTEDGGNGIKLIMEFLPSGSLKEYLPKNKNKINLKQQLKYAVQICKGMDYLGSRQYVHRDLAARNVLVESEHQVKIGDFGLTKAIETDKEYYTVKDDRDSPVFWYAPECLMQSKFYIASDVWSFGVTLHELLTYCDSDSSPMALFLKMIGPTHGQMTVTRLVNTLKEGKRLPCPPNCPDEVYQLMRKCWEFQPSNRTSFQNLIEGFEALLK
T3 sequence (P52333 781-1124): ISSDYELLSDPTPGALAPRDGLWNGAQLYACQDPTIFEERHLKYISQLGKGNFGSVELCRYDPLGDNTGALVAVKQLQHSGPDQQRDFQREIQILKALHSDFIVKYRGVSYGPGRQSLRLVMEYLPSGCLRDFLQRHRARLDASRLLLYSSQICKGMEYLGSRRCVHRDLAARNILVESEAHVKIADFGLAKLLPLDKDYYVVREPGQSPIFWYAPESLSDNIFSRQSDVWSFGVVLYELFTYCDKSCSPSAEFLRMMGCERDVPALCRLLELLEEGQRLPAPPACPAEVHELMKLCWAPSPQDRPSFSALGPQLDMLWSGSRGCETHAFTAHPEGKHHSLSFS
T2 sequence (O60674 828-1132): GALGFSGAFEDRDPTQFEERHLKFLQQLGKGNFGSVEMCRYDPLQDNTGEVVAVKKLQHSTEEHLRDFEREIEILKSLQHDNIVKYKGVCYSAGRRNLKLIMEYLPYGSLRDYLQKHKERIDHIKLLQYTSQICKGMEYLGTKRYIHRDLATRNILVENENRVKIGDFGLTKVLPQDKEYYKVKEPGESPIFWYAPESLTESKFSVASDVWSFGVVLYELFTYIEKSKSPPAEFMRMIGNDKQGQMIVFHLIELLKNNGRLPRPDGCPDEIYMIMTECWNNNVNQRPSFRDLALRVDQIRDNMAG
TYK2, sequence (P29597 whole entry): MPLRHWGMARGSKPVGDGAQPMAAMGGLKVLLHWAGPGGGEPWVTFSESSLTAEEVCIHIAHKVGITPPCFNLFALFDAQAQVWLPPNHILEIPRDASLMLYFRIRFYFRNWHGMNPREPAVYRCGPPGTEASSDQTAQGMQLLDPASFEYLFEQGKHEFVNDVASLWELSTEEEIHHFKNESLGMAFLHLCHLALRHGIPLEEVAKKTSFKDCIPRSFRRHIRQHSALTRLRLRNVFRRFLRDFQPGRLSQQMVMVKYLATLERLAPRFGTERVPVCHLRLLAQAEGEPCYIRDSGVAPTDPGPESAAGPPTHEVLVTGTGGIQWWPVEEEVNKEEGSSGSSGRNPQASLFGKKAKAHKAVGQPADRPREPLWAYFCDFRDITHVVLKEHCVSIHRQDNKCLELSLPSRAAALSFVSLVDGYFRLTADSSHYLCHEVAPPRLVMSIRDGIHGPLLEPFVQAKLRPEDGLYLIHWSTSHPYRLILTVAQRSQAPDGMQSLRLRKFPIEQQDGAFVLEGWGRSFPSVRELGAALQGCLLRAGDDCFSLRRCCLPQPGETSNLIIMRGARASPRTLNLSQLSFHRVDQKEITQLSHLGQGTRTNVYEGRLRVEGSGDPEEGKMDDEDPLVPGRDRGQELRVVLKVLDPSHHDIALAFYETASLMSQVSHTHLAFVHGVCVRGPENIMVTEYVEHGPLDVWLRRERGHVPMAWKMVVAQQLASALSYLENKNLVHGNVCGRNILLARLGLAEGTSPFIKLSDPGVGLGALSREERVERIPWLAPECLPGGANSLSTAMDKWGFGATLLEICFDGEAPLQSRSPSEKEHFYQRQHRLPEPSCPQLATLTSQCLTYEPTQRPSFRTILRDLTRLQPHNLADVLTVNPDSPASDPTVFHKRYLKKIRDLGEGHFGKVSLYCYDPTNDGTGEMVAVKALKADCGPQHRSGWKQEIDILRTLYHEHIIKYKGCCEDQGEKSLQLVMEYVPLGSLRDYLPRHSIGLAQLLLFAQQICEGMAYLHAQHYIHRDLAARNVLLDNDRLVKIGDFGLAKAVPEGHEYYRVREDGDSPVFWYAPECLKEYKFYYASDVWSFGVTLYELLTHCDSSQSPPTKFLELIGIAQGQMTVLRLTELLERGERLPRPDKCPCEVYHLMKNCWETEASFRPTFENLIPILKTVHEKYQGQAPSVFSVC
T4 sequence (Q9UM73 19-1620): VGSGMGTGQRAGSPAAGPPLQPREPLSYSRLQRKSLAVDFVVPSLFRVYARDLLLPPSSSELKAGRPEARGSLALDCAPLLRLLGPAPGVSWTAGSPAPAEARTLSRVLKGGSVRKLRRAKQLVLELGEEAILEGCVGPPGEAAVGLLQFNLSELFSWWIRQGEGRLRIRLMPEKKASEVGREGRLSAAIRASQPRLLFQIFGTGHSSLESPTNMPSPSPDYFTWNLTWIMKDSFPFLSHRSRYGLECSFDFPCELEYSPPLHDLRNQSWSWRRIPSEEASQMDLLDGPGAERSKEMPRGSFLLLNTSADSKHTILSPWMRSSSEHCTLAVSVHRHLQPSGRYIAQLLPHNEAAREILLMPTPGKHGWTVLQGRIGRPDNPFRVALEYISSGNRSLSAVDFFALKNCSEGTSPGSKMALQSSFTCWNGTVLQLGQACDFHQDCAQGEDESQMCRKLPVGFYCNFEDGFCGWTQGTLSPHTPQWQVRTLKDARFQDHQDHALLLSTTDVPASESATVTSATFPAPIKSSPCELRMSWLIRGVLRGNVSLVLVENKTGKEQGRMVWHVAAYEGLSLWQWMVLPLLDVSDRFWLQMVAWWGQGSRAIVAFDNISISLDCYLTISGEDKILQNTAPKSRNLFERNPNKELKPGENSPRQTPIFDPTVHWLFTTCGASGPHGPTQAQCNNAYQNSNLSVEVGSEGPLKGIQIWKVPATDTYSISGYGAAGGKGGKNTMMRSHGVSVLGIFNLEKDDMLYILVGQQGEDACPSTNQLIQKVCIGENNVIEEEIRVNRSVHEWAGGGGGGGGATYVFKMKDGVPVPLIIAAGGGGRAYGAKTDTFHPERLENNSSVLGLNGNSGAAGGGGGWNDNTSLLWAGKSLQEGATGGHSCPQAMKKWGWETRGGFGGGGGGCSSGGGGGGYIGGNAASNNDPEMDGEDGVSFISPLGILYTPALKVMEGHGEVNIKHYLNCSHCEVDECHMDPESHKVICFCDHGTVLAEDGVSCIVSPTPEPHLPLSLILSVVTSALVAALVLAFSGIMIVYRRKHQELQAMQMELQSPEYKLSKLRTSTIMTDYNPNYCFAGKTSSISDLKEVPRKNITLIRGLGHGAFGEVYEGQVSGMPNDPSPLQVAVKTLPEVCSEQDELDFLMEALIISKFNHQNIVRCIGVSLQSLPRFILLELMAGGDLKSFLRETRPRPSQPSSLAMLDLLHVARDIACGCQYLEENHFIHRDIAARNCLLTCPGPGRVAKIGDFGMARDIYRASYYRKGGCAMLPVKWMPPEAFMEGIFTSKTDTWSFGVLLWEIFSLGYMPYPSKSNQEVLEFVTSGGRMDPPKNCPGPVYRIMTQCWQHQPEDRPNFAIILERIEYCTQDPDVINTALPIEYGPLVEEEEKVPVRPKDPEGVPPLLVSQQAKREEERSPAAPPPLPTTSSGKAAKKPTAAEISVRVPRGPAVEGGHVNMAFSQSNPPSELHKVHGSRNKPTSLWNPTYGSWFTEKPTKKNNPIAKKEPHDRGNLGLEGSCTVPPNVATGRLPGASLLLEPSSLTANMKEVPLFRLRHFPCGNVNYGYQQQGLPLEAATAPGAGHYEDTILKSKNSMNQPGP

Consider `COc1ccc(NC(=O)Nc2ccc3cc2CCc2cccc(c2)Nc2ncc(Cl)c(n2)N3)cc1` [Example B101, N-[6-Chloro-2,4,8,22-tetraazatetracyclo[14.3.1.1(3,7).1(9,13)]docosa-1(20), 3(22),4,6,9(21),10,12,16,18-nonaen-12-yl]-N′-(4-methoxyphenyl)urea trifluoroacetate], for which the half-inhibitory concentration (IC50) is 4.5 nM in assay [1] (Table B1), 10 nM in assay [2] (Table B1), 26 nM in assay [3] (Table B1) and 19 nM against TYK2 (Table B1). For the same molecule, in assay [4] (setting [5]), the “ALK % of inhibition at a concentration of 500 nM or 1 mM” value (shortened to “ALK % of inhibition”) is recorded as 39%.

`O=C(Nc1ccc2cc1CCc1cccc(c1)Nc1ncc(Cl)c(n1)N2)c1ccoc1` [Example B59, N-[6-Chloro-2,4,8,22-tetraazatetracyclo[14.3.1.1(3,7).1(9,13)]docosa-1(20), 3(22),4,6,9(21),10,12,16,18-nonaen-12-yl]-3-furamide trifluoroacetate]: the IC50 in assay [1] (Table B1) turned out to be 2.4 nM; in assay [2] (Table B1) it was 2.4 nM; in assay [3] (Table B1) it was 5.1 nM; against TYK2 (Table B1) it was 5.3 nM; in assay [4] (Table B1, cells without percent sign), 700 nM.

Regarding `C[N+]1(C)CCC(CC(=O)Nc2ccc3cc2CCc2cccc(c2)Nc2ncc(Cl)c(n2)N3)CC1` [Example A111, 4-(2-{[6-Chloro-2,4,8,22-tetraazatetracyclo[14.3.1.1(3,7).1(9,13)]docosa-1(20),3(22),4,6,9(21),10,12,16,18-nonaen-12-yl]amino}-2-oxoethyl)-1,1-dimethylpiperidinium bis(trifluoroacetate)], the IC50 stood at 45 nM in assay [1] (setting [6]), 103 nM in assay [2] (setting [7]), 298 nM in assay [3] (setting [8]) and 148 nM at TYK2. In addition, the “ALK % of inhibition” value in assay [4] (setting [9]) was 23%.

`O=C(Nc1ccc2cc1CCc1cccc(c1)Nc1ncc(Cl)c(n1)N2)[C@@H]1CCNC1` [Example A45, (3R)—N-[6-chloro-2,4,8,22-tetraazatetracyclo[14.3.1.1(3,7).1(9,13)]docosa-1(20),3(22),4,6,9(21),10,12,16,18-nonaen-12-yl]pyrrolidine-3-carboxamide bis(trifluoroacetate)]: the IC50 is 9.6 nM in assay [1] (setting [6]), 20 nM in assay [2] (setting [7]), 31 nM in assay [3] (setting [8]) and 39 nM against TYK2. Also, the “ALK % of inhibition” value in assay [4] (setting [9]) turned out to be 29%.

For `CC(C)(C)NC(=O)N1CCC(CC(=O)Nc2ccc3cc2CCc2cccc(c2)Nc2ncc(Cl)c(n2)N3)CC1` [Example A85, N-(tert-Butyl)-4-(2-{[6-chloro-2,4,8,22-tetraazatetracyclo[14.3.1.1(3,7).1(9,13)]docosa-1(20),3(22),4,6,9(21),10,12,16,18-nonaen-12-yl]amino}-2-oxoethyl)piperidine-1-carboxamide trifluoroacetate], the IC50 in assay [1] (setting [6]) was found to be 49 nM; in assay [2] (setting [7]), 13 nM; in assay [3] (setting [8]), 147 nM; on TYK2, 33 nM. Besides, the “ALK % of inhibition” value in assay [4] (setting [9]) is recorded as 19%.

On to `O=C(CC1CCN(c2ccnc(F)c2)CC1)Nc1ccc2cc1CCc1cncc(c1)Nc1ncc(Cl)c(n1)N2` [Example A244, N-[6-Chloro-2,4,8,18,22-pentaazatetracyclo[14.3.1.1(3,7).1(9,13)]docosa-1(20),3(22),4,6,9(21),10,12,16,18-nonaen-12-yl]-2-[1-(2-fluoropyridin-4-yl)piperidin-4-yl]acetamide tris(trifluoroacetate)], for which the IC50 in assay [1] (setting [6]) is 30 nM; in assay [2] (setting [7]), 171 nM; in assay [3] (setting [8]) it was above 400 nM; against TYK2 it was 170 nM. Besides, the “ALK % of inhibition” value in assay [4] (setting [9]) was found to be 66%.

For `Cc1cc(N2CCOCC2)c2cc1Nc1ncc(Cl)c(n1)Nc1cccc(c1)CC2` [Example A6, 6-Chloro-19-methyl-17-morpholin-4-yl-2,4,8,22-tetraazatetracyclo[14.3.1.1(3,7).1(9,13)]docosa-1(20),3(22),4,6,9(21),10,12,16,18-nonaene trifluoroacetate], the IC50 was 700 nM in assay [1] (setting [6]); 8.7 nM in assay [2] (setting [7]); 802 nM in assay [3] (setting [8]); 76 nM against TYK2; 497 nM in assay [4] (90 μM ATP).

With `CN(C)S(=O)(=O)N1CCC(CC(=O)Nc2ccc3cc2CCc2cncc(c2)Nc2ncc(Cl)c(n2)N3)CC1` [Example A96, N-[6-Chloro-2,4,8,18,22-pentaazatetracyclo[14.3.1.1(3,7).1(9,13)]docosa-1(20),3(22),4,6,9(21),10,12,16,18-nonaen-12-yl]-2-{1-[(dimethylamino)sulfonyl]piperidin-4-yl}acetamide bis(trifluoroacetate)], the IC50 came out at 4.5 nM in assay [1] (setting [6]), 6.6 nM in assay [2] (setting [7]), 80 nM in assay [3] (setting [8]) and 11 nM against TYK2. Also, in assay [4] (setting [9]), the “ALK % of inhibition” value is reported as 26%.

Regarding `O=C(Nc1ccc2cc1CCc1cccc(c1)Nc1ncc(Cl)c(n1)N2)N[C@H]1CCN(c2ncccn2)C1` [Example B262, N-[6-Chloro-2,4,8,22-tetraazatetracyclo[14.3.1.1(3,7).1(9,13)]docosa-1(20),3(22),4,6,9(21),10,12,16,18-nonaen-12-yl]-N′-[(3S)-1-pyrimidin-2-ylpyrrolidin-3-yl]urea bis(trifluoroacetate)], the IC50 was 2.6 nM in assay [1] (Table B1), 4.7 nM in assay [2] (Table B1), 38 nM in assay [3] (Table B1) and 8.7 nM at TYK2 (Table B1). Also, the “ALK % of inhibition” value in assay [4] (setting [5]) is reported as 19%.

For the molecule `COc1cc2cc(c1)Nc1nc(ncc1Cl)Nc1cccc(c1)CC2` [Example A21, 6-Chloro-11-methoxy-2,4,8,22-tetraazatetracyclo[14.3.1.1(3,7).1(9,13)]docosa-1(20),3(22),4,6,9(21),10,12,16,18-nonaene trifluoroacetate], the IC50 in assay [1] (setting [6]) amounted to 57 nM; in assay [2] (setting [7]) it was 6.2 nM; in assay [3] (setting [8]), 26 nM; at TYK2, 98 nM. Besides, in assay [4] (setting [9]), the “ALK % of inhibition” value is on record as 65%.

As for `O=C(Nc1ccc2cc1CCc1cccc(c1)Nc1ncc(Cl)c(n1)N2)C1CCCNC1` (stereo not shown) [Example A44, N-[6-Chloro-2,4,8,22-tetraazatetracyclo[14.3.1.1(3,7).1(9,13)]docosa-1(20), 3(22),4,6,9(21),10,12,16,18-nonaen-12-yl]piperidine-3-carboxamide bis(trifluoroacetate)], the IC50 in assay [1] (setting [6]) worked out at 26 nM; in assay [2] (setting [7]), 52 nM; in assay [3] (setting [8]), 71 nM; at TYK2 it was 169 nM. Also, in assay [4] (setting [9]), the “ALK % of inhibition” value was found to be 21%.

For the molecule `CC(C)(C)NC(=O)N1CCN(c2cc(-c3cc4cc(c3)Nc3ncc(Cl)c(n3)Nc3cccc(c3)OCC4)ccn2)CC1` [Example D41, N-(tert-Butyl)-4-{4-[6-chloro-14-oxa-2,4,8,23-tetraazatetracyclo[15.3.1.1(3,7).1(9,13)]tricosa-1(21),3(23),4,6,9(22),10,12,17,19-nonaen-19-yl]pyridin-2-yl}piperazine-1-carboxamide bis(trifluoroacetate)], the IC50 is 3.1 nM in assay [1] (Table D1); 0.4 nM in assay [2] (Table D1); 17 nM in assay [3] (Table D1); 6.2 nM against TYK2 (Table D1); 280 nM in assay [4] (Table D1, 90 μM ATP).

Regarding `O=C(NCCNS(=O)(=O)c1ccccc1)Nc1ccc2cc1CCc1cccc(c1)Nc1ncc(Cl)c(n1)N2` [Example B329, N-{2-[({[6-Chloro-2,4,8,22-tetraazatetracyclo[14.3.1.1(3,7).1(9,13)]docosa-1(20),3(22),4,6,9(21),10,12,16,18-nonaen-12-yl]amino}carbonyl)amino]ethyl}benzenesulfonamide trifluoroacetate], the IC50 was 3 nM in assay [1] (Table B1), 3.2 nM in assay [2] (Table B1), 6.5 nM in assay [3] (Table B1) and 5.8 nM against TYK2 (Table B1). In addition, the “ALK % of inhibition” value in assay [4] (percentage inhibition of the example compound at a concentration of 500 nM or 1 mM (not specified which)) was determined as 20%.

As to `COc1ccc(NC(=O)N2CCC(CC(=O)Nc3ccc4cc3CCc3cncc(c3)Nc3ncc(Cl)c(n3)N4)CC2)cc1` [Example A154, 4-(2-{[6-Chloro-2,4,8,18,22-pentaazatetracyclo[14.3.1.1(3,7).1(9,13)]docosa-1(20),3(22),4,6,9(21),10,12,16,18-nonaen-12-yl]amino}-2-oxoethyl)-N-(4-methoxyphenyl)piperidine-1-carboxamide bis(trifluoroacetate)], the IC50 in assay [1] (setting [6]) was 0.6 nM; in assay [2] (setting [7]), 2.6 nM; in assay [3] (setting [8]), above 100 nM; at TYK2, 3.1 nM. Moreover, the “ALK % of inhibition” value in assay [4] (setting [9]) is recorded as 51%.
